Data published in ChEMBL document CHEMBL1201861, “Genomics of Drug Sensitity in Cancer screening data, Wellcome Trust Sanger Institute”.

System: COR-L88;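 note: growth inhibition of COR-L88 cells, read out with a cell viability assay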
Test: cells
Type: functional, cell-based, Homo sapiens
Conditions: Homo sapiens, COR-L88
Description: SANGER: Inhibition of human COR-L88 cell growth in a cell viability assay.

SMILES | IC50 [µM]
C=CC(=O)N1CCCC(Nc2nc(Nc3ccc(N(C)C(=O)CC)cc3)nc3[nH]cnc23)C1 (stereo not given) | > 10.2

System: DJM-1;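 note: growth inhibition of human DJM-1 cells, read out by a cell viability assay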
Test: cells
Type: functional, cell-based, Homo sapiens
Conditions: Homo sapiens, DJM-1
Description: SANGER: Inhibition of human DJM-1 cell growth in a cell viability assay.

SMILES | IC50 [µM]
C=CC(=O)N1CCCC(Nc2nc(Nc3ccc(N(C)C(=O)CC)cc3)nc3[nH]cnc23)C1 (stereo not given) | > 10.2

System: DMS-114
Test: cells
Type: functional, cell-based, Homo sapiens
Conditions: Homo sapiens, DMS-114

SMILES | IC50 [µM]
C=CC(=O)N1CCCC(Nc2nc(Nc3ccc(N(C)C(=O)CC)cc3)nc3[nH]cnc23)C1 (stereo not given) | > 10.2

System: EW-11;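 note: growth inhibition of human EW-11 cells, measured with a cell viability assay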
Test: cells
Type: functional, cell-based, Homo sapiens
Conditions: Homo sapiens, EW-11
Description: SANGER: Inhibition of human EW-11 cell growth in a cell viability assay.

SMILES | IC50 [µM]
C=CC(=O)N1CCCC(Nc2nc(Nc3ccc(N(C)C(=O)CC)cc3)nc3[nH]cnc23)C1 (stereo not given) | > 10.2

System: EW-16;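 note: growth inhibition of human EW-16 cells, read out as cell viability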
Test: cells
Type: functional, cell-based, Homo sapiens
Conditions: Homo sapiens, EW-16
Description: SANGER: Inhibition of human EW-16 cell growth in a cell viability assay.

SMILES | IC50 [µM]
C=CC(=O)N1CCCC(Nc2nc(Nc3ccc(N(C)C(=O)CC)cc3)nc3[nH]cnc23)C1 (stereo not given) | 2.59

System: GB-1;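 note: growth of GB-1 cells judged by a viability assay, IC50 marks the concentration inhibiting growth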
Test: cells
Type: functional, cell-based, Homo sapiens
Conditions: Homo sapiens, GB-1
Description: SANGER: Inhibition of human GB-1 cell growth in a cell viability assay.

SMILES | IC50 [µM]
C=CC(=O)N1CCCC(Nc2nc(Nc3ccc(N(C)C(=O)CC)cc3)nc3[nH]cnc23)C1 (stereo not given) | > 10.2

System: GI-1;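 note: growth inhibition of human GI-1 cells, measured with a cell viability readout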
Test: cells
Type: functional, cell-based, Homo sapiens
Conditions: Homo sapiens, GI-1
Description: SANGER: Inhibition of human GI-1 cell growth in a cell viability assay.

SMILES | IC50 [µM]
C=CC(=O)N1CCCC(Nc2nc(Nc3ccc(N(C)C(=O)CC)cc3)nc3[nH]cnc23)C1 (stereo not given) | > 10.2

System: GI-ME-N;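 note: growth inhibition of human GI-ME-N cells, read out with a cell viability assay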
Test: cells
Type: functional, cell-based, Homo sapiens
Conditions: Homo sapiens, GI-ME-N
Description: SANGER: Inhibition of human GI-ME-N cell growth in a cell viability assay.

SMILES | IC50 [µM]
C=CC(=O)N1CCCC(Nc2nc(Nc3ccc(N(C)C(=O)CC)cc3)nc3[nH]cnc23)C1 (stereo not given) | > 10.2

System: GOTO;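 note: growth inhibition of GOTO cells, read out by a cell viability assay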
Test: cells
Type: functional, cell-based, Homo sapiens
Conditions: Homo sapiens, GOTO
Description: SANGER: Inhibition of human GOTO cell growth in a cell viability assay.

SMILES | IC50 [µM]
C=CC(=O)N1CCCC(Nc2nc(Nc3ccc(N(C)C(=O)CC)cc3)nc3[nH]cnc23)C1 (stereo not given) | > 10.2

System: GR-ST
Test: cells
Type: functional, cell-based, Homo sapiens
Conditions: Homo sapiens, GR-ST
Description: SANGER: Inhibition of human GR-ST cell growth in a cell viability assay.

SMILES | IC50 [µM]
C=CC(=O)N1CCCC(Nc2nc(Nc3ccc(N(C)C(=O)CC)cc3)nc3[nH]cnc23)C1 (stereo not given) | > 10.2

System: GT3TKB;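 note: growth inhibition of the cell line, read out with a cell viability assay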
Test: cells
Type: functional, cell-based, Homo sapiens
Conditions: Homo sapiens, GT3TKB
Description: SANGER: Inhibition of human GT3TKB cell growth in a cell viability assay.

SMILES | IC50 [µM]
C=CC(=O)N1CCCC(Nc2nc(Nc3ccc(N(C)C(=O)CC)cc3)nc3[nH]cnc23)C1 (stereo not given) | > 10.2

System: HL-60;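 note: growth inhibition of human HL-60 cells, read out with a cell viability assay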
Test: cells
Type: functional, cell-based, Homo sapiens
Conditions: Homo sapiens, HL-60
Description: SANGER: Inhibition of human HL-60 cell growth in a cell viability assay.

SMILES | IC50 [µM]
C=CC(=O)N1CCCC(Nc2nc(Nc3ccc(N(C)C(=O)CC)cc3)nc3[nH]cnc23)C1 (stereo not given) | > 10.2

System: HOP-62;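 note: cell growth inhibition determined with a viability assay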
Test: cells
Type: functional, cell-based, Homo sapiens
Conditions: Homo sapiens, HOP-62
Description: SANGER: Inhibition of human HOP-62 cell growth in a cell viability assay.

SMILES | IC50 [µM]
C=CC(=O)N1CCCC(Nc2nc(Nc3ccc(N(C)C(=O)CC)cc3)nc3[nH]cnc23)C1 (stereo not given) | > 10.2

System: KARPAS-45;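 note: inhibition of cell line growth, read out through a viability assay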
Test: cells
Type: functional, cell-based, Homo sapiens
Conditions: Homo sapiens, KARPAS-45
Description: SANGER: Inhibition of human KARPAS-45 cell growth in a cell viability assay.

SMILES | IC50 [µM]
C=CC(=O)N1CCCC(Nc2nc(Nc3ccc(N(C)C(=O)CC)cc3)nc3[nH]cnc23)C1 (stereo not given) | > 10.2

System: KE-37;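 note: growth inhibition of KE-37 cells, read out with a cell viability assay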
Test: cells
Type: functional, cell-based, Homo sapiens
Conditions: Homo sapiens, KE-37
Description: SANGER: Inhibition of human KE-37 cell growth in a cell viability assay.

SMILES | IC50 [µM]
C=CC(=O)N1CCCC(Nc2nc(Nc3ccc(N(C)C(=O)CC)cc3)nc3[nH]cnc23)C1 (stereo not given) | > 10.2

System: KGN;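 note: growth inhibition of KGN cells, read out with a cell viability assay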
Test: cells
Type: functional, cell-based, Homo sapiens
Conditions: Homo sapiens, KGN
Description: SANGER: Inhibition of human KGN cell growth in a cell viability assay.

SMILES | IC50 [µM]
C=CC(=O)N1CCCC(Nc2nc(Nc3ccc(N(C)C(=O)CC)cc3)nc3[nH]cnc23)C1 (stereo not given) | > 10.2

System: KLE;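 note: growth inhibition of human KLE cells, read out with a cell viability assay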
Test: cells
Type: functional, cell-based
Conditions: Homo sapiens
Description: SANGER: Inhibition of human KLE cell growth in a cell viability assay.

SMILES | IC50 [µM]
C=CC(=O)N1CCCC(Nc2nc(Nc3ccc(N(C)C(=O)CC)cc3)nc3[nH]cnc23)C1 (stereo not given) | > 10.2

System: KS-1;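 note: growth inhibition of KS-1 cells, read out with a cell viability assay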
Test: cells
Type: functional, cell-based
Conditions: Homo sapiens
Description: SANGER: Inhibition of human KS-1 cell growth in a cell viability assay.

SMILES | IC50 [µM]
C=CC(=O)N1CCCC(Nc2nc(Nc3ccc(N(C)C(=O)CC)cc3)nc3[nH]cnc23)C1 (stereo not given) | 8.01

System: LAN-6;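 note: growth inhibition of LAN-6 cells, determined with a cell viability assay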
Test: cells
Type: functional, cell-based, Homo sapiens
Conditions: Homo sapiens, LAN-6
Description: SANGER: Inhibition of human LAN-6 cell growth in a cell viability assay.

SMILES | IC50 [µM]
C=CC(=O)N1CCCC(Nc2nc(Nc3ccc(N(C)C(=O)CC)cc3)nc3[nH]cnc23)C1 (stereo not given) | > 10.2

System: LB771-HNC;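 note: growth inhibition of LB771-HNC human cells, read out with a cell viability assay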
Test: cells
Type: functional, cell-based
Conditions: Homo sapiens
Description: SANGER: Inhibition of human LB771-HNC cell growth in a cell viability assay.

SMILES | IC50 [µM]
C=CC(=O)N1CCCC(Nc2nc(Nc3ccc(N(C)C(=O)CC)cc3)nc3[nH]cnc23)C1 (stereo not given) | > 10.2

System: LS-1034
Test: cells
Type: functional, cell-based, Homo sapiens
Conditions: Homo sapiens, LS-1034
Description: SANGER: Inhibition of human LS-1034 cell growth in a cell viability assay.

SMILES | IC50 [µM]
C=CC(=O)N1CCCC(Nc2nc(Nc3ccc(N(C)C(=O)CC)cc3)nc3[nH]cnc23)C1 (stereo not given) | > 10.2

System: Lu-65;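 note: growth inhibition of Lu-65 cancer cells, read out by a cell viability assay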
Test: cells
Type: functional, cell-based, Homo sapiens
Conditions: Homo sapiens, Lu-65
Description: SANGER: Inhibition of human LU-65 cell growth in a cell viability assay.

SMILES | IC50 [µM]
C=CC(=O)N1CCCC(Nc2nc(Nc3ccc(N(C)C(=O)CC)cc3)nc3[nH]cnc23)C1 (stereo not given) | > 10.2

System: MC116;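 note: growth inhibition of MC116 cells, read out with a cell viability assay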
Test: cells
Type: functional, cell-based, Homo sapiens
Conditions: Homo sapiens, MC116
Description: SANGER: Inhibition of human MC116 cell growth in a cell viability assay.

SMILES | IC50 [µM]
C=CC(=O)N1CCCC(Nc2nc(Nc3ccc(N(C)C(=O)CC)cc3)nc3[nH]cnc23)C1 (stereo not given) | > 10.2

System: MMAC-SF;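 note: growth inhibition of human MMAC-SF cells, read out with a cell viability assay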
Test: cells
Type: functional, cell-based
Conditions: Homo sapiens
Description: SANGER: Inhibition of human MMAC-SF cell growth in a cell viability assay.

SMILES | IC50 [µM]
C=CC(=O)N1CCCC(Nc2nc(Nc3ccc(N(C)C(=O)CC)cc3)nc3[nH]cnc23)C1 (stereo not given) | > 10.2

System: MOLT-16;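 note: growth inhibition of human MOLT-16 cells, read out with a cell viability assay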
Test: cells
Type: functional, cell-based, Homo sapiens
Conditions: Homo sapiens, MOLT-16
Description: SANGER: Inhibition of human MOLT-16 cell growth in a cell viability assay.

SMILES | IC50 [µM]
C=CC(=O)N1CCCC(Nc2nc(Nc3ccc(N(C)C(=O)CC)cc3)nc3[nH]cnc23)C1 (stereo not given) | > 10.2
